Where a name gives a salt, the structure may show the parent alone.

The target in one test is T1, human NK2 receptor (Homo sapiens, UniProt P21452).
T1 construct: expressed in transfected cells
T1 sequence (P21452 1-398): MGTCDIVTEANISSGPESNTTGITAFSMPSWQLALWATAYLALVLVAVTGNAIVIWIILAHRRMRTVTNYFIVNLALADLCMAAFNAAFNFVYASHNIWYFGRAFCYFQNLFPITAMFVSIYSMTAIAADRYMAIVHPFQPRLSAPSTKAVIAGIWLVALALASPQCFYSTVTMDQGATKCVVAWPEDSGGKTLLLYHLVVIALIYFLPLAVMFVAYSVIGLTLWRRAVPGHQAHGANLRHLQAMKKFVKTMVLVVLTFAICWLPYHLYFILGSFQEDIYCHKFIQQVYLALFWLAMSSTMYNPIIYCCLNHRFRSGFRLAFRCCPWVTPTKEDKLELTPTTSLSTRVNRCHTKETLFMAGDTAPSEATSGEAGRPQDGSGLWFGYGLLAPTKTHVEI
Description: Neurokinin A (NKA) receptor-binding assay (Test A), 3H-NKA binding to MEL cell membranes. An excerpt:
Neurokinin A (NKA) Receptor-binding Assay (Test A)
Heterologous protein expression in Mouse Erythroleukemia (MEL) cells uses the human globin locus control region (LCR) (F. Grosveld et al., Cell (1987) 51, 975-985). The cDNAs are inserted between the human beta-globin promoter and the second intron of the human beta-globin gene, and this expression cassette is then placed downstream of the LCR and transfected into MEL cells (M. Needham et al., Nucl. Acids Res. (1992) 20, 997-1003). Human NK2 receptor cDNA (A. Graham et al., Biochem. Biophys. Res. Commun. (1991) 177, 8-16) was isolated from human lung RNA by polymerase chain reaction and DNA sequenced. […] These were annealed and ligated to the hNK2R fragment by standard methods. Following cleavage with Hind III, the resulting fragment was cloned into the Hind III and Bam HI sites in the polylinker of the shuttle vector pMEG3. […] Directly after transfection, cells were diluted in culture medium to 10^4 and 10^5 cell per mL and 1 mL aliquots transferred to each well of a 24-well plate.
G418 was added to a concentration of 1 mg/mL 24 hours after the transfection to select for stable transfectants. […]
Nonspecific binding is routinely defined with 1 μM NKA. […] The filters are deposited in scintillation vials and read in a Beckman LS 6000LL Scintillation Counter.

In the next test the test system is guinea pig trachea. Description: Guinea pig assay (Test B), antagonism of agonist (NKA or [β-Ala8]-NKA(4-10)) contraction of tracheal rings. Format: cell-based. As to the method: Guinea Pig Assay (Test B)
In the test described below either NKA or [β-Ala^8]-NKA(4-10) is used as an agonist. The chosen agonist is refered to as AG throughout the description.
Male guinea pigs are killed by a sharp blow to the back of the head. The trachea are removed, trimmed of excess tissue and divided into two segments. […] Initial tension placed on each tissue is 1 g, which is maintained throughout a 0.5 to 1.5 hour equilibration period before addition of other drugs. Contractile responses are measured on a Grass polygraph via Grass FT-03 force transducers.
Tissues are challenged repetitively with a single concentration of AG (10 nM) with intervening 30 min periods with washing to allow the tension to return to baseline levels. […] Percent inhibition is determined when a Compound produces a statistically significant (p<0.05) reduction of the contraction and is calculated using the second contractile response as 100%.
Potencies of selected Compounds are evaluated by calculating apparent dissociation constants (KB) for each concentration tested using the standard equation: […]
where dose ratio=antilog[(AG −log molar EC50 without Compound) −(AG−log molar EC50 with Compound)]. The KB values may be converted to the negative logarithms and expressed as −log molar KB (i.e. PKB). […] The EC50 values are converted to the negative logarithms and expressed as −log molar EC50. […]

Consider `CN(CC(CCN1CCC(N2CCOC2=O)CC1)c1ccc(Cl)c(Cl)c1)C(=O)c1ccccc1.Cl` (stereo not shown) [Example 1, N-[2-(3,4-Dichlorophenyl)-4-[4-(2-oxo-1,3-oxazolidin-3-yl)piperidino]butyl]-N-methylbenzamide hydrochoride], for which, on human NK2 receptor (result in words), the “NK2 antagonist activity in the in vitro screen (Test A)” value is recorded as “potent NK2 antagonist”. In addition, the “NK2 antagonist activity in the functional assay (Test B)” value with guinea pig trachea (result in words) is reported as “potent NK2 antagonist”.
As to `CN(C[C@@H](CCN1CCC(N2CCCOC2=O)CC1)c1ccc(Cl)c(Cl)c1)C(=O)c1ccccc1` [Example 2, (S)-N-[2-(3,4-Dichlorophenyl)-4-(2-oxoperhydro-1,3-oxa-zin-3-yl)piperidino]butyl]-N-methylbenzamide hydrochloride], the inhibition constant Ki (usually a measure of affinity in units of concentration, obtained from inhibition or displacement) on human NK2 receptor (Test A, typically found) was found to be 4.1 nM. Also, the Kb – broadly, the affinity of an antagonist, worked out from how it opposes an agonist – in the test with guinea pig trachea (Cavia porcellus, Test B, -log molar apparent dissociation constant KB) was 2 nM.

(Values after patent US6444809B1, “Therapeutic heterocycles” (Zeneca Limited, priority 1993, dated 2002).)
